Counter-ions that a name gives are not always drawn. Like-named read-outs stand apart in the source and are kept apart here.
Legend:
Target C = test: RT-qPCR splicing assay, gene panel, Target C canonical junction (CJ) mRNA; type: cell-based; conditions: Homo sapiens, read-out: Target C CJ IC50
Method in brief: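 A673 (DMEM/10% FBS) or K562 (IMDM/10% FBS) cells were treated 24 h at 37 °C with an 11-point 3-fold dilution series, top final 10 uM, DMSO ≤0.25%. Lysates underwent one-step RT-qPCR for the canonical-junction isoform with GAPDH, GUSB or PPIA as housekeeper. ΔΔCt versus DMSO was converted to RQ (2^−ΔΔCt), then to percent response.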

[1] = system: HiBiT-tagged MYB protein in K562 cells; test: HiBit protein abundance assay, MYB; type: cell-based, human; conditions: K562 HiBiT-modified cells, 24 hours, luminescence
Procedure: Compounds described herein were used to screen for effects on quantitative protein abundance using a HiBit assay system (Promega). Quantitative protein abundance was determined by measuring the protein levels of HiBit-tagged protein targets expressed in cell culture via luminescence using the Nano-Glo HiBiT Lytic Detection System, which uses a split complementation assay format to reconstitute NanoBiT enzyme to generate a luminescent signal. A protein abundance assay was developed such that endogenous protein targets could be modified with the HiBiT peptide tag and their abundance could be assessed after compound treatment. Briefly, K562 cell lines containing a HiBiT-modification were treated with various compounds described herein (e.g., compounds of Formulas (I), (II), or (III)). After treatment for 24 hours, the protein abundance of a specific target was determined by measuring luminescence. • Promega Nano-Glo HiBiT Lytic Detection System (cat #N3030) • Corning 384-well TC-treated microplates (cat #3570) • Synthego Engineered Cells Knock-In Clones [table] Cells were maintained in IMDM with 10% FBS. Before the assay, cells were diluted with phenolphthalein-free growth media (IMDM+1% FBS media) and were seeded in a 384-well plate at a density of 10000 cells/well (for each cell line listed in Table 6). Each compound was prepared as a 10-point 3-fold serial dilution in DMSO with the top dose at a final concentration of 10 μM in the well. Unmodified K562 cells were added at the previously specified density with DMSO to serve as an assay baseline and positive control (PC) and DMSO only with the respective modified cell lines was added to the negative control (NC) columns. Final DMSO concentration was kept at or below 0.25%. Treated cell plates were placed in an incubator at 37° C. with 5% CO2 for 24 hours. After 24 hours, 25 μL of Complete HiBit Lytic reagent was added to each well at room temperature (e.g. one plate requiring 10 mL Lytic Buffer, 100 μL LgBiT Protein, 200 μL Lytic Substrate), shaken for 5 minutes at 600 RPM, then left to sit for 10 minutes for signal to stabilize before reading on a Spark Cyto plate reader (Tecan) with a 500 ms measurement time. To determine compound effects on protein abundance of each target in Table 6, the percent response for each respective cell line was calculated at each compound concentration as follows: For the normalized response at each concentration, a four-parameter logistical regression was fit to the data and the response was interpolated at the 50% value to determine a concentration for protein abundance at 50% (IC50) the untreated control.

[2] = decrease in CJ mRNA levels, larger panel of genes, Table 3

Row | Structure (SMILES) | IC50 (Target C; [2]) [nM] | IC50 [1] [nM] | IC50 (Target C) [nM]
1 | Cc1cn2nc(-c3cc(F)c4nn([C@H]5CCNC[C@@H]5F)cc4c3)cc(C)c2n1 [Compound 167, 6-(7-fluoro-2-((3S,4S)-3-fluoropiperidin-4-yl)-2H-indazol-5-yl)-2,8-dimethylimidazo[1,2-b]pyridazine] | 100 to 1000 | 1000 to 10000 | 
2 | Cc1cn2nc(-c3cc(F)c4nn(C5CCN(CC6CC6)C6(CC6)C5)cc4c3)cc(C)c2n1 (stereo not shown) [Compound 183, 6-[2-[4-(cyclopropylmethyl)-4-azaspiro[2.5]octan-7-yl]-7-fluoro-indazol-5-yl]-2,8-dimethyl-imidazo[1,2-b]pyridazine] | < 100 | 100 to 1000 | 
3 | COc1cc(-c2cc3cn(C)nc3cc2O)nc2cn(C3CCNCC3)nc12 [Compound 140, 5-[7-methoxy-2-(4-piperidyl)pyrazolo[4,3-b]pyridin-5-yl]-2-methyl-indazol-6-ol] | 1000 to 10000 | 1000 to 10000 | 
4 | Fc1cc(-c2ccc3cnccc3c2)cc2cn(C3CCNCC3)nc12 [Compound 161, 6-[7-fluoro-2-(4-piperidyl)indazol-5-yl]isoquinoline] | 1000 to 10000 | 1000 to 10000 | 
5 | Cc1cn2nc(-c3cc(F)c4nn(C5CCNCC5)cc4c3)cc2c(C)n1 [Compound 124, 2-[7-fluoro-2-(4-piperidyl)indazol-5-yl]-4,6-dimethyl-pyrazolo[1,5-a]pyrazine] | 100 to 1000 | 100 to 1000 | 
6 | CCN1CCC(n2cc3cc(-c4cc(C)c5nc(C)cn5n4)cc(F)c3n2)CC1 [Compound 146, 6-[2-(1-ethyl-4-piperidyl)-7-fluoro-indazol-5-yl]-2,8-dimethyl-imidazo[1,2-b]pyridazine] | 100 to 1000 | 100 to 1000 | 
7 | Cc1cn2nc(-c3cc(F)c4nn(C5CCN(CCO)CC5)cc4c3)cc(C)c2n1 [Compound 160, 2-[4-[5-(2,8-dimethylimidazo[1,2-b]pyridazin-6-yl)-7-fluoro-indazol-2-yl]-1-piperidyl]ethanol] |  | 100 to 1000 | 100 to 1000
8 | COc1cc2nn(C3CCNCC3)cc2cc1-c1cc(C)c2nc(C)cn2n1 [Compound 159, 6-(6-methoxy-2-(piperidin-4-yl)-2H-indazol-5-yl)-2,8-dimethylimidazo[1,2-b]pyridazine] | > 10000 | > 10000 | 
9 | Cc1cn2nc(-c3cc4cn(C5CCNCC5)nc4cn3)cc(C)c2n1 [Compound 147, 2,8-dimethyl-6-[2-(4-piperidyl)pyrazolo[3,4-c]pyridin-5-yl]imidazo[1,2-b]pyridazine] | 100 to 1000 | 100 to 1000 | 
10 | Cc1cn2nc(-c3cc4cn(C5CCNCC5)nc4c(O)n3)cc(C)c2n1 [Compound 139, 5-(2,8-dimethylimidazo[1,2-b]pyridazin-6-yl)-2-(4-piperidyl)-6H-pyrazolo[3,4-c]pyridin-7-one] | 100 to 1000 | 100 to 1000 | 
11 | Cc1cn2nc(-c3cc(F)c4nn(C5CCNCC5)cc4c3)cc(C)c2n1 [Compound 122, 6-(7-fluoro-2-(piperidin-4-yl)-2H-indazol-5-yl)-2,8-dimethylimidazo [1,2-b]pyridazine hydrochloride salt] |  | < 100 | < 100

Reference: patent US20250082633A1, “COMPOUNDS AND METHODS FOR MODULATING SPLICING” (REMIX THERAPEUTICS INC., priority 2021, published 2025)
